Data taken from patent US4055640A, “Compositions and methods for controlling the growth of bacteria, fungi and algae using certain derivatives of N-(2,2-dichlorovinyl)salicylamides” (Nippon Kayaku Co., Ltd., priority 1975, dated 1977).
In brackets after ≈: the same amount, converted by molar mass. Several values for one entry are separate records, joined by “and”; a condition that tells them apart may be missing. Identical values can stand only once. Counter-ions that a name gives are not always drawn.

How the values were obtained:
[1] = test system: seedling blight of rice plant (pathogen Fusarium sp. and Rhizoctonia sp.); assay: Exterminating test on seedling blight of rice plant (Experimental Example 1); type: in vivo; conditions: soil, 408 h, 0.25g/box a.i., 5% dust mixed with soil; read-out: Percentage of healthy seedlings
How it was run: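 Pathogen-contaminated nursery soil (Fusarium sp., Rhizoctonia sp.) mixed with 5% compound dust at 5 g per box; Nihonbare rice sown, grown 7 days at 17° C in lighting chamber, then moved to field. Assessed 10 days later as percentage of healthy seedlings; commercial 4% hydroxyisoxazol dust run as control.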

[2] = test system: Cladosporium cucumerinum (cucumber scab); assay: Exterminating test on cucumber scab (Experimental Example 2); type: in vivo; set-up: scale not given here; conditions: 500 ppm, 5 days after inoculation
How it was run: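 Potted cucumber seedlings (cv. Sagamihanjiro, 3–4 leaf stage) were sprayed with an aqueous suspension of 80% wettable powder, then spray-inoculated with Cladosporium cucumerinum spores 24 h later. Plants were held 24 h in a moist chamber at 20° C, then in a greenhouse at 20° C. Infected Index was scored 5 days after inoculation from leaf counts by attack severity.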

[3] = test system: cucumber seedlings (variety: Sagamihanjiro); assay: Phytotoxicity on cucumber seedlings (Experimental Example 2); type: in vivo; conditions: 500 ppm
How it was run: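 Cucumber seedlings at the 3–4 leaf stage sprayed with water-diluted 80% wettable powder, then spray-inoculated with Cladosporium cucumerinum spores 24 h later. Plants held 24 h in a moist chamber at 20° C, then kept in a greenhouse at 20° C.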

[4] = test system: botrytis cinerea (gray mold); assay: Exterminating test on gray mold of tomato (Experimental Example 5); type: in vivo; set-up: scale not given here; conditions: 1,000 ppm, 48 hours after inoculation, kidney bean leaves
How it was run: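 Kidney bean seedlings (5-6 leaf stage) sprayed with water-diluted 80% wettable powder; leaves detached 24 h later and inoculated with B. cinerea agar disks under moist conditions. Lesion diameters measured 48 h post-inoculation to calculate an Effect Index.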

[5] = test system: seedlings of kidney beans (variety: Orient); assay: Phytotoxicity on kidney beans (Experimental Example 5); type: in vivo; conditions: 1,000 ppm
summer orange seedlings = assay: Phytotoxicity on summer orange seedlings (Experimental Example 6); type: in vivo; conditions: 1,000 ppm
Cladosporium cucumerinum = assay: Exterminating test for seed treatment (Experimental Example 7); type: in vivo
Text: Exterminating test for seed treatment. Cucumber seeds (variety: Oyashima) were dipped in the spores suspension of Cladosporium cucumerinum and dried. After 1 day, the seeds were dressed with 80% wettable powder of the present invention. On the other hand, other seeds were dipped in the solution of 80% wettable powder of the present invention. Five (5) seeds treated by either dressing or dipping were placed on each potato dextrose agar plate. After 10 days after the treatment, degrees attacked by the pathogen were observed and the results were shown with an "Effective Index". An "Effective Index" was calculated as follows: [formula]

[6] = test system: Cucumber seeds (variety: Oyashima); assay: Phytotoxicity on cucumber seeds (Experimental Example 7); type: in vivo
Aspergillus niger = assay: Minimum inhibitory concentration, dilution methods (Example 14); type: cell-based
Text: (§1) Bacteriocidal activity and fungicidal activity of the active compounds of the present invention were examined by potato-dextrose agar dilution method, [2] waxman's liquid medium dilution method or [3] glucose bouillon medium dilution method. The results are shown in Table 4 below as the minimum inhibitory concentration (the minimum concentration of active compound found to produce 100% control of the test bacteria and fungi).

Bacillus subtilis = assay: as above; type: cell-based; conditions: Bacillus subtilis
Text: as §1

Cladosporium harbarum = assay: as above; type: cell-based; conditions: for minimum inhibitory concentration: (1) potato-dextrose agar dilution method
Text: as §1

Escherichia coli = assay: as above; type: cell-based; conditions: Escherichia coli
Text: as §1

Penicillium Citrinum = assay: as above; type: cell-based; conditions: for MIC: Penicillium citrinum
Text: as §1

Staphylococcus aureus = assay: as above; type: cell-based; conditions: for minimum inhibitory concentration: (1) potato-dextrose agar dilution method; for MIC: Staphylococcus aureus
Text: as §1

[7] = (2) waxman's liquid medium dilution method
[8] = (1) potato-dextrose agar dilution method
[9] = (3) glucose bouillon medium dilution method

Compound | Percentage of healthy seedlings at 0.25 g/box [1] [%] | Infected Index [2] | Phytotoxicity [3] | Effect Index [4] | Phytotoxicity [5] | Phytotoxicity (summer orange seedlings) | Effective Index (Cladosporium cucumerinum; dipped, 5,000 ppm (30 min.)) | Effective Index (Cladosporium cucumerinum; dressed, 1 %) | Phytotoxicity ([6]; dipped, 5,000 ppm (30 min.)) | Phytotoxicity ([6]; dressed, 1 %) | minimum inhibitory concentration (Cladosporium harbarum) [mc g/ml] | minimum inhibitory concentration (Staphylococcus aureus) [mc g/ml] | also measured
O=C(NC=C(Cl)Cl)c1ccccc1O [Compound No. 1, N-(β,β-dichlorovinyl) salicylamide] | 80.2 | 9.4 | Nil | 84 | Nil | Nil | 69 | 87 | Nil | Nil | 10 | 2.5 | minimum inhibitory concentration (Aspergillus niger; [7]): 10 mc g/ml; MIC (Aspergillus niger; Aspergillus niger, (1) potato-dextrose agar dilution method): 10 mg/L (≈ 43.1 µM); MIC (Bacillus subtilis; [8]): 2.5 mg/L (≈ 10.8 µM); MIC (Bacillus subtilis; [7]): 5 mg/L (≈ 21.5 µM); MIC (Cladosporium harbarum; Cladosporium, (2) waxman's liquid medium dilution method): 5 mg/L (≈ 21.5 µM); MIC (Escherichia coli; [8]): 80 mg/L (≈ 345 µM); MIC (Escherichia coli; [7]): 80 mg/L (≈ 345 µM); MIC (Penicillium Citrinum; [8]): 10 mg/L (≈ 43.1 µM); MIC (Penicillium Citrinum; [7]): 20 mg/L (≈ 86.2 µM); MIC (Staphylococcus aureus; [7]): 2.5 mg/L (≈ 10.8 µM)
CC(=O)Oc1ccccc1C(=O)NC=C(Cl)Cl [Compound No. 6, O-acetyl-N-(2,2-dichlorovinyl) salicylamide] | 83.2 | 8.2 | Nil | 75 | Nil | Nil | 88 and 81 | 95 | Nil | Nil |  |  | 
O=C(NC=C(Cl)Cl)c1ccccc1O [Compound No. 20, sodium salt of N-(β,β-dichlorovinyl) salicylamide] |  | 13.7 | Nil | 85 | Nil |  |  | 90 |  | Nil | 2.5 | 6 | minimum inhibitory concentration (Aspergillus niger; [8]): 10 mc g/ml; MIC (Bacillus subtilis; [9]): 5 mg/L; MIC (Escherichia coli; [9]): 60 mg/L; minimum inhibitory concentration (Penicillium Citrinum; [8]): 10 mc g/ml; MIC (Staphylococcus aureus; [9]): 5 mg/L
